The results in this text go back to patent US8507472B2 (priority 2010, dated 2013).

One test has as its system Phytophthora infestans. It is filed as in vivo. As to conditions: in vivo.
Another test has as its system Botrytis cinerea. Description: Botrytis test (bean)/protective. As to conditions: 100 ppm active compound, protective, evaluation 2 days after inoculation. It is filed as in vivo. Here is the method:
(§1) Solvents: 24.5 parts by weight of acetone
(§2) • 24.5 parts by weight of dimethylacetamide Emulsifier: 1 part by weight of alkylaryl polyglycol ether
(§3) To produce a suitable preparation of active compound, 1 part by weight of active compound is mixed with the stated amounts of solvents and emulsifier, and the concentrate is diluted with water to the desired concentration.
To test for protective activity, young plants are sprayed with the active compound preparation at the stated application rate. After the spray coating has dried on, 2 small pieces of agar colonized by Botrytis cinerea are placed onto each leaf. The inoculated plants are placed in a dark chamber at about 20° C. and 100% relative atmospheric humidity.
2 days after the inoculation, the size of the infected areas on the leaves is evaluated. 0% means an efficacy which corresponds to that of the control, whereas an efficacy of 100% means that no infection is observed.

In the next test the test system is Uromyces appendiculatus. In words: Uromyces test (bean)/protective. As to conditions: in vivo. It is filed as in vivo. As for the experimental part: as §1, §2, §3
To test for protective activity, young plants are sprayed with the active compound preparation at the stated application rate. After the spray coating has dried on, the plants are inoculated with an aqueous spore suspension of the bean rust pathogen Uromyces appendiculatus and then remain in an incubation cabin at about 20° C. and 100% relative atmospheric humidity for 1 day.
(§4) The plants are then placed in a greenhouse at about 21° C. and a relative atmospheric humidity of about 90%.
(§5) Evaluation is carried out 10 days after the inoculation. 0% means an efficacy which corresponds to that of the control, whereas an efficacy of 100% means that no infection is observed.

The test system of another test is Venturia inaequalis. Description: Venturia test (apple)/protective. It is filed as in vivo. As to conditions: 100 ppm active compound, protective, evaluation 10 days after inoculation. As for the experimental part:
Solvents: 24.5 parts by weight of acetone • 24.5 parts by weight of dimethylacetamide Emulsifier: 1 part by weight of alkylaryl polyglycol ether
as §3
To test for protective activity, young plants are sprayed with the active compound preparation at the stated application rate. After the spray coating has dried on, the plants are inoculated with an aqueous conidia suspension of the apple scab pathogen Venturia inaequalis and then remain in an incubation cabin at about 20° C. and 100% relative atmospheric humidity for 1 day.
as §4, §5

In test [1] the test system is Fusarium graminearum. In words: microbe, parasite or virus in culture. As to conditions: 50 μM. It is filed as cell-based.
In the next test the test system is DON/AcDON production. Description: microbe, parasite or virus in culture. It is filed as cell-based, Fusarium graminearum. As to conditions: 7 days at 28° C.
The test system of another test is Septoria tritici. Description: Septoria tritici test (wheat)/protective. It is filed as in vivo. As to conditions: in vivo. Here is the method:
(§6) Solvent: 49 parts by weight of N,N-dimethylacetamide
(§7) Emulsifier: 1 part by weight of alkylaryl polyglycol ether
To produce a suitable preparation of active compound, 1 part by weight of active compound is mixed with the stated amount of solvent and emulsifier, and the concentrate is diluted with water to the desired concentration.
To test for protective activity, young plants are sprayed with the active compound preparation at the stated application rate. After the spray coating has dried on, the plants are sprayed with a spore suspension of Septoria tritici. The plants remain in an incubation cabin at 20° C. and 100% relative atmospheric humidity for 48 hours. The plants are then placed under a translucent hood at 15° C. and 100% relative atmospheric humidity for a further 60 hours.
The plants are placed in a greenhouse at a temperature of about 15° C. and a relative atmospheric humidity of 80%.
Evaluation is carried out 21 days after the inoculation. 0% means an efficacy which corresponds to that of the control, whereas an efficacy of 100% means that no infection is observed.

Another test concerns Leptosphaeria nodorum. In words: Leptosphaeria nodorum test (wheat)/protective. It is filed as in vivo. As to conditions: in vivo. An outline of the steps: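 Young wheat plants were sprayed protectively, then inoculated 1 day later with L. nodorum spores and held 48 h at 100% humidity and 22° C. They were then kept in a greenhouse at 90% humidity and 22° C. Efficacy was scored 7-9 days post-inoculation, where 0% equals control and 100% means no infection.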

For the next test, the system named is Alternaria solani. In words: Alternaria test (tomato)/protective. It is filed as in vivo. As to conditions: in vivo. In short, it runs like this:
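Treatment was protective: spray application at the stated rate came one day before spore inoculation. Incubation was 24 h at 22 °C and 100% humidity, then 20 °C and 96% humidity. Infection was rated at day 7 as % efficacy against the control, with 100% meaning no disease.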

A further test concerns Pyrenophora teres. In words: Pyrenophora teres test (barley)/protective. It is filed as in vivo. As to conditions: in vivo. In short, it runs like this:
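Efficacy, read 7-9 days after spore inoculation, runs from 0% (equal to untreated control) to 100% (no infection). Barley sprayed with water-diluted DMF/emulsifier formulation was inoculated one day later, incubated 48 h at 22° C. and 100% rel. humidity, then held at 20° C. and 80% humidity.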

The test system of another test is Sphaerotheca fuliginea. In words: Sphaerotheca test (cucumber)/protective. It is filed as in vivo. As to conditions: in vivo. In short, it runs like this:
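Infection was rated 7 days after spore inoculation as % efficacy (0% = control level, 100% = no disease). Inoculation followed 1 day after preventive spray of young cucumbers with compound formulated in N,N-dimethylformamide plus emulsifier and diluted with water; plants were held at 23 °C and 70% relative humidity.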

The subject of test [2] is Fusarium nivale (var. majus). Description: Fusarium nivale (var. majus) test (wheat)/protective. It is filed as in vivo. As to conditions: 1000 ppm active compound, protective, evaluation 5 days after inoculation. Here is the method:
as §6, §7
(§8) To produce a suitable preparation of active compound, 1 part by weight of active compound is mixed with the stated amounts of solvent and emulsifier, and the concentrate is diluted with water to the desired concentration.
(§9) To test for protective activity, young plants are sprayed with the active compound preparation at the stated application rate.
After the spray coating has dried on, the plants are sprayed with spores of a spore suspension of Fusarium nivale (var. majus).
The plants are placed in a greenhouse chamber under a translucent incubation hood at 10° C. and 100% relative atmospheric humidity.
Evaluation is carried out 5 days after the inoculation. 0% means an efficacy which corresponds to that of the control, whereas an efficacy of 100% means that no infection is observed.

Another test deals with Puccinia triticina. In words: Puccinia triticina test (wheat)/protective. As to conditions: in vivo. It is filed as in vivo. As for the experimental part:
Solvent: 49 parts by weight of […]
as §7, §8, §9
After the spray coating has dried on, the plants are sprayed with spores of a spore suspension of Puccinia triticina. The plants remain in an incubation cabin at 20° C. and 100% relative atmospheric humidity for 48 hours.
The plants are placed in greenhouse at a temperature of about 20° C. and a relative atmospheric humidity of about 80%.
Evaluation is carried out 8 days after the inoculation. 0% means an efficacy which corresponds to that of the control, whereas an efficacy of 100% means that no infection is observed.

Test [3] deals with Fusarium graminearum. It is filed as in vivo. As to conditions: in vivo.

For `C[C@H](O)C(=O)Nc1cc(-c2c(-c3ccccc3)nn3c2CCCC3)ccn1` [Example 25], the efficacy in % with Phytophthora infestans stood at 80%; with Botrytis cinerea, 90%; in the test on Uromyces appendiculatus, 94%; in the test on Venturia inaequalis it was 94%; in the test with Septoria tritici, 86%; with Leptosphaeria nodorum it was 95%. Also, the efficacy in % in the test with Alternaria solani is recorded as 100%; in the test on Pyrenophora teres, 100%; in the test with Sphaerotheca fuliginea, 94%; in test [2] it was 100%; in the test on Puccinia triticina, 88%. Besides, in the test with Fusarium graminearum [1], the “% inhibition of the fungal growth of Fusarium graminearum at 50 μM” value (shortened to “% inhibition of the fungal growth … at 50 μM”) is reported as 92%. Also, in the test with DON/AcDON production, the “% inhibition of DON/AcDON at 50 μM” value came to 99%.

Turning to `COC(=O)Nc1cc(-c2c(-c3ccccc3)nn3c2CCCC3)ccn1` [Example 27], the efficacy in % in the test with Phytophthora infestans was 80%; with Fusarium graminearum [3], 94%; in the test with Botrytis cinerea, 92%; in the test on Uromyces appendiculatus, 94%; in the test with Venturia inaequalis, 89%; in the test on Alternaria solani it was 100%. The efficacy in % with Pyrenophora teres stood at 90%; in test [2], 86%; in the test on Puccinia triticina, 75%. Also, the “% inhibition of the fungal growth … at 50 μM” value in the test with Fusarium graminearum [1] amounted to 56%. Moreover, in the test on DON/AcDON production, the “% inhibition of DON/AcDON at 50 μM” value was 99%.

For `O=C(Nc1cc(-c2c(-c3ccc(F)cc3)nn3c2CCCC3)ccn1)c1ccsc1` [Example 47], the efficacy in % with Phytophthora infestans is recorded as 80%; with Septoria tritici, 100%; in the test with Alternaria solani it was 90%; with Pyrenophora teres it was 90%; in the test on Sphaerotheca fuliginea, 96%; in test [2], 80%. Besides, the “% inhibition of the fungal growth … at 50 μM” value with Fusarium graminearum [1] is reported as 76%. The “% inhibition of DON/AcDON at 50 μM” value in the test on DON/AcDON production came to 100%.

For `CCC(=O)Nc1cc(-c2c(-c3ccsc3)nn3c2CCCC3)ccn1` [Example 59], the efficacy in % in the test with Fusarium graminearum [3] is recorded as 94%; with Botrytis cinerea it was 100%; in the test on Venturia inaequalis, 97%; with Leptosphaeria nodorum, 89%; in the test with Alternaria solani, 70%; in the test with Pyrenophora teres it was 90%. For the same compound, the efficacy in % with Sphaerotheca fuliginea is reported as 98%; in [2], 100%; in the test with Puccinia triticina it was 100%. Moreover, the “% inhibition of the fungal growth … at 50 μM” value in the test with Fusarium graminearum [1] was 100%. For the same compound, the “% inhibition of DON/AcDON at 50 μM” value with DON/AcDON production was 100%.

As for `CC(=O)Nc1cc(-c2c(-c3ccsc3)nn3c2CCCC3)ccn1` [Example 58], the efficacy in % with Phytophthora infestans was determined as 70%; with Fusarium graminearum [3] it was 100%; with Botrytis cinerea it was 100%; with Venturia inaequalis, 99%; with Septoria tritici, 89%; in the test on Leptosphaeria nodorum it was 94%. In addition, the efficacy in % worked out at 80% in the test with Alternaria solani; 90% in the test on Pyrenophora teres; 96% in the test on Sphaerotheca fuliginea; 100% in [2]; 100% in the test on Puccinia triticina. Also, the “% inhibition of the fungal growth … at 50 μM” value in the test on Fusarium graminearum [1] is 100%. The “% inhibition of DON/AcDON at 50 μM” value in the test on DON/AcDON production stood at 100%.

Regarding `CC(C)(O)C(=O)Nc1cc(-c2c(-c3ccccc3)nn3c2CCCC3)ccn1` [Example 50], the efficacy in % with Fusarium graminearum [3] came out at 83%; in the test on Venturia inaequalis, 88%; in the test on Septoria tritici, 90%; in the test on Alternaria solani, 95%; with Pyrenophora teres, 95%; in the test on Sphaerotheca fuliginea it was 94%. Further, the efficacy in % in test [2] is 83%; in the test with Puccinia triticina, 86%. In addition, the “% inhibition of the fungal growth … at 50 μM” value in the test on Fusarium graminearum [1] came out at 57%. The “% inhibition of DON/AcDON at 50 μM” value in the test on DON/AcDON production came to 92%.

For `Fc1ccc(-c2nn3c(c2-c2ccncc2)CCCCC3)cc1` [Example 43], the efficacy in % is recorded as 70% in the test with Phytophthora infestans; 99% in the test on Botrytis cinerea; 90% in the test with Uromyces appendiculatus; 98% in the test on Venturia inaequalis; 100% with Septoria tritici; 90% with Leptosphaeria nodorum. Moreover, the efficacy in % came to 94% with Alternaria solani, 95% with Pyrenophora teres, 80% in [2] and 100% with Puccinia triticina. Moreover, in the test on Fusarium graminearum [1], the “% inhibition of the fungal growth … at 50 μM” value came out at 100%. In addition, in the test with DON/AcDON production, the “% inhibition of DON/AcDON at 50 μM” value was found to be 98%.

Take `O=CNc1cc(-c2c(-c3ccc(F)cc3)nn3c2CCCC3)ccn1` [Example 36]: the efficacy in % worked out at 80% in the test with Phytophthora infestans; 93% in the test with Fusarium graminearum [3]; 85% in the test with Uromyces appendiculatus; 100% in the test on Septoria tritici; 90% in the test on Leptosphaeria nodorum; 89% in the test on Pyrenophora teres. The results for the efficacy in % (in the test with Sphaerotheca fuliginea; in [2]; in the test on Puccinia triticina) were 94%, 88% and 78%, respectively. Further, the “% inhibition of the fungal growth … at 50 μM” value in the test with Fusarium graminearum [1] turned out to be 94%. Moreover, in the test with DON/AcDON production, the “% inhibition of DON/AcDON at 50 μM” value turned out to be 99%.

On to `CC(C)(O)C(=O)Nc1cc(-c2c(-c3ccc(F)cc3)nn3c2CCCC3)ccn1` [Example 55], for which the efficacy in % in the test on Fusarium graminearum [3] amounted to 83%; with Septoria tritici, 90%; in the test with Leptosphaeria nodorum it was 90%; in the test on Alternaria solani, 80%; in the test on Pyrenophora teres it was 95%; with Sphaerotheca fuliginea, 95%. In addition, the efficacy in % (in test [2]; in the test on Puccinia triticina) was 100% in each case.

With `O=CNc1cc(-c2c(-c3ccccc3)nn3c2CCCC3)ccn1` [Example 37], the efficacy in % in the test on Phytophthora infestans is 70%; in the test with Leptosphaeria nodorum, 90%; with Alternaria solani, 95%; in the test on Pyrenophora teres, 100%; in test [2] it was 86%; in the test with Puccinia triticina, 78%. Besides, the “% inhibition of the fungal growth … at 50 μM” value in the test with Fusarium graminearum [1] is given as 93%. Also, the “% inhibition of DON/AcDON at 50 μM” value in the test on DON/AcDON production stood at 99%.
